Tests used:
[1] = target: CDK1-cyclin B (Homo sapiens, UniProt P06493); assay: Kinase assay (radioactive phosphate incorporation), CDK1-cyclin B; format: biochemical; conditions: read-out: Kinase Inhibition pIC50 CDK1-cyclin B (converted)
Summary of the method: (§1)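 Inhibition measured as 32P transfer from ATP (100 μM, 15 mM MgCl2) onto peptide substrates at 30° C. Each assay used 2-4 μg active recombinant enzyme in pH 7.4 buffer. Reactions stopped on ice, filtered, acid-washed and counted; compounds diluted into 10% DMSO in assay buffer.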

[2] = target: CDK2-cyclin A (Homo sapiens, UniProt P24941); assay: Kinase assay (radioactive phosphate incorporation), CDK2-cyclin A; format: biochemical; conditions: read-out: Kinase Inhibition pIC50 CDK2-cyclin A (converted)
Procedure: (§2) Kinase assays. The compounds of the invention above were investigated for their ability to inhibit the enzymatic activity of various protein kinases (Table 2). This was achieved by measurement of incorporation of radioactive phosphate from ATP into appropriate polypeptide substrates. Recombinant protein kinases and kinase complexes were produced or obtained commercially. Assays were performed using 96-well plates and appropriate assay buffers (typically 25 mM β-glycerophosphate, 20 mM MOPS, 5 mM EGTA, 1 mM DTT, 1 mM […], pH 7.4), into which were added 2-4 μg of active enzyme with appropriate substrates. The reactions were initiated by addition of Mg/ATP mix (15 mM MgCl2+100 μM ATP with 30-50 kBq per well of [γ-^32P]-ATP) and mixtures incubated as required at 30° C. Reactions were stopped on ice, followed by filtration through p81 filterplates or GF/C filterplates (Whatman Polyfiltronics, Kent, UK). After washing 3 times with 75 mM aq orthophosphoric acid, plates were dried, scintillant added and incorporated radioactivity measured in a scintillation counter (TopCount, Packard Instruments, Pangbourne, Berks, UK). Compounds for kinase assay were made up as 10 mM stocks in DMSO and diluted into 10% DMSO in assay buffer.

[3] = target: CDK2-cycline E (Homo sapiens, UniProt P24941); assay: Kinase assay (radioactive phosphate incorporation), CDK2-cyclin E; format: biochemical; conditions: read-out: Kinase Inhibition pIC50 CDK2-cycline E (converted)
Summary of the method: as §1

[4] = target: CDK4-cyclin D1 (Homo sapiens, UniProt P11802); assay: Kinase assay (radioactive phosphate incorporation), CDK4-cyclin D1; format: biochemical; conditions: read-out: Kinase Inhibition pIC50 CDK4-cyclin D1 (converted)
Summary of the method: as §1

[5] = target: CDK7/cyclin H (Homo sapiens, UniProt P50613); assay: CDK 7 assay (CTD peptide substrate); format: biochemical; conditions: read-out: Kinase Inhibition pIC50 CDK7-cyclin H (converted)
Summary of the method: (§3)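 32P transfer from 100 μM ATP (trace [γ-32P]ATP) to a biotinyl CTD (YSPTSPS)4 peptide was measured after 45 min at 30 °C in pH 7.2 MOPS buffer, 15 mM MgCl2, using recombinant human CDK7/cyclin H or CDK9/cyclin T1. Signal read by filter binding and scintillation counting.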

[6] = target: CDK9/cyclin T1 (Homo sapiens, UniProt P50750); assay: CDK 9 assay (CTD peptide substrate); format: biochemical; conditions: read-out: Kinase Inhibition pIC50 CDK9-cyclin T1 (converted)
Summary of the method: as §3

[7] = target: GSK3b (Homo sapiens, UniProt P49841); assay: Kinase assay (radioactive phosphate incorporation), GSK-3b; format: biochemical; conditions: read-out: Kinase Inhibition pIC50 GSK-3b (converted)
Procedure: as §2

[8] = target: T1, Aurora A kinase (Homo sapiens, UniProt O14965); assay: Aurora-A (human) kinase assay (Kemptide substrate); format: biochemical; conditions: pIC50 is -log(IC50, M); 15 μM ATP; read-out: Kinase Inhibition pIC50 Aurora A kinase (converted)
T1 construct: purchased
T1 sequence (O14965 1-403): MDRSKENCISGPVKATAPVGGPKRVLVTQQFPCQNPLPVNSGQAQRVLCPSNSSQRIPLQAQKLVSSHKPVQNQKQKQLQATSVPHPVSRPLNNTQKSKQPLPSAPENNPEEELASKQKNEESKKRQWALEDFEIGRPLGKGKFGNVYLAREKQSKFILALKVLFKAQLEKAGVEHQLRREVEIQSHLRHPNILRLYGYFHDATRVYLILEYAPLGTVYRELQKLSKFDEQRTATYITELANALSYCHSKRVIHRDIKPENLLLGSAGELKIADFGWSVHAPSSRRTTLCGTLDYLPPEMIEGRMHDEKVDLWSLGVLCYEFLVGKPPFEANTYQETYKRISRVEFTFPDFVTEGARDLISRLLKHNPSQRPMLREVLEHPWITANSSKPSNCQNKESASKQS
Summary of the method: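 Kemptide (LRRASLG, 200 μM) phosphorylation by 5-10 ng commercial aurora-A measured as [γ-33P] incorporation at 15 μM ATP with 10 mM Mg acetate, pH 7.0 MOPS buffer. Reaction ran 40 min at room temperature; acid-stopped, captured on P81 filters, scintillation read.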

[9] = target: T2, Flt3 (FMS-like tyrosine kinase-3) (Homo sapiens, UniProt P36888); assay: Kinase assay (radioactive phosphate incorporation), Flt3; format: biochemical; conditions: pIC50 is -log(IC50, M), read-out: Kinase Inhibition pIC50 Flt3 (converted)
T2 sequence (P36888 27-993): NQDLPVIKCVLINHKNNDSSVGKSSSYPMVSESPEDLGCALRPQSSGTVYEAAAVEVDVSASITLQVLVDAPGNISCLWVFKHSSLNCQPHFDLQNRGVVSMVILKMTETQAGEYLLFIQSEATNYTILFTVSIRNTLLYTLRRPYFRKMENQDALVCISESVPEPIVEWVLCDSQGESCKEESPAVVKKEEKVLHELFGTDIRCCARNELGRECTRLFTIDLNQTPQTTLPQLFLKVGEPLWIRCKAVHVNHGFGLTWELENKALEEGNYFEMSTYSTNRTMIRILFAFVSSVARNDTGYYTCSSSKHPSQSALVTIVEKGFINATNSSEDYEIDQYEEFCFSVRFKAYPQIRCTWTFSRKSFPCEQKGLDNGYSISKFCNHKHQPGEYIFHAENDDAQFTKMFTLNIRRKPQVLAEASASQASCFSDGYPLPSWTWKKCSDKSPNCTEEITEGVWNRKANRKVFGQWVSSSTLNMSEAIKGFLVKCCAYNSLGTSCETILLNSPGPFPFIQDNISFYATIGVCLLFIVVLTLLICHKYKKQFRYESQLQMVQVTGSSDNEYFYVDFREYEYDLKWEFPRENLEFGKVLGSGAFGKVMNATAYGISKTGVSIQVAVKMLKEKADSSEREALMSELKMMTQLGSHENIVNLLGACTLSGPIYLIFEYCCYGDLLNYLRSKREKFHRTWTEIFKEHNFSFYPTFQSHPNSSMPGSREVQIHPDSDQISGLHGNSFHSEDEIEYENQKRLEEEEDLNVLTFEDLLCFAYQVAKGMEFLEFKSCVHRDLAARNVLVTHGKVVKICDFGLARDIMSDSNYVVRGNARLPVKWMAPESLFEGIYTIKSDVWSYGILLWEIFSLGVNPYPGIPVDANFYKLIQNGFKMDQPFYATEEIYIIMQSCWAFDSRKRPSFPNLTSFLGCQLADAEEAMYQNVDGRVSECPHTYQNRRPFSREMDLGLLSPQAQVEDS
Summary of the method: as §1

Chain of CDK1-cyclin B (P06493 whole entry): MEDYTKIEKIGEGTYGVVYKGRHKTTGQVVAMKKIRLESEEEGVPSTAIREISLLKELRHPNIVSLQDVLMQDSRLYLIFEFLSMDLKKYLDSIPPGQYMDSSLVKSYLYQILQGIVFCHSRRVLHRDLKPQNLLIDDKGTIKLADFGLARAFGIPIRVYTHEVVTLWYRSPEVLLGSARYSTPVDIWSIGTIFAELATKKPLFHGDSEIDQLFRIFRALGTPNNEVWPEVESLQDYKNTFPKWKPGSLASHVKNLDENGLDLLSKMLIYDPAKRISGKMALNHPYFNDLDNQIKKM
Chain of CDK1-cyclin B (P14635 whole entry partner): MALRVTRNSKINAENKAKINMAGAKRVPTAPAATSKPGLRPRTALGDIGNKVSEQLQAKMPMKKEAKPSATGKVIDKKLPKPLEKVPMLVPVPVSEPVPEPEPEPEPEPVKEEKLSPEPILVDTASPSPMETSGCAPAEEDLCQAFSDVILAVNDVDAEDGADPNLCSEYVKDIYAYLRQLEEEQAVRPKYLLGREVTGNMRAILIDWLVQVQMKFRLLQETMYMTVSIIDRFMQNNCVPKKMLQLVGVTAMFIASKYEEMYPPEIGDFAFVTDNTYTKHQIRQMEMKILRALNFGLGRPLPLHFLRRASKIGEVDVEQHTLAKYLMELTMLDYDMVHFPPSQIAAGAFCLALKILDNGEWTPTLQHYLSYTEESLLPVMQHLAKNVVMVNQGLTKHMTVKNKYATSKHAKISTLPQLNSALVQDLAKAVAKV
Chain of CDK4-cyclin D1 (P11802 whole entry): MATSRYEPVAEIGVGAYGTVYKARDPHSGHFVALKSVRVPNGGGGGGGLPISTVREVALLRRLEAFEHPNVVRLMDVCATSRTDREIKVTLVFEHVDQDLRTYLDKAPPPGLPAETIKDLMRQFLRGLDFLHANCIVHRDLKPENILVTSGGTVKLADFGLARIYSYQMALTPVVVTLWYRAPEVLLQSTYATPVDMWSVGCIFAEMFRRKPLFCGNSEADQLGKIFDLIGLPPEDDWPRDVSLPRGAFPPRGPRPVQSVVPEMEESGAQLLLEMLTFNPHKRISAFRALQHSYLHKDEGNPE
Chain of CDK4-cyclin D1 (P24385 whole entry partner): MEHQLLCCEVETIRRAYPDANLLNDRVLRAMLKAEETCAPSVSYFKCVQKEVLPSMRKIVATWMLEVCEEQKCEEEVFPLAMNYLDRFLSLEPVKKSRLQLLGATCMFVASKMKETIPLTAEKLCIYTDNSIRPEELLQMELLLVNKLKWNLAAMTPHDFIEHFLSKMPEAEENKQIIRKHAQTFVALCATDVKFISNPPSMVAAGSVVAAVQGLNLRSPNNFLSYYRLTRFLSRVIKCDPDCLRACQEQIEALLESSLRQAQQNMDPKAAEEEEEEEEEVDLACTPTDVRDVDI
Chain of GSK3b (P49841 whole entry, species assumed): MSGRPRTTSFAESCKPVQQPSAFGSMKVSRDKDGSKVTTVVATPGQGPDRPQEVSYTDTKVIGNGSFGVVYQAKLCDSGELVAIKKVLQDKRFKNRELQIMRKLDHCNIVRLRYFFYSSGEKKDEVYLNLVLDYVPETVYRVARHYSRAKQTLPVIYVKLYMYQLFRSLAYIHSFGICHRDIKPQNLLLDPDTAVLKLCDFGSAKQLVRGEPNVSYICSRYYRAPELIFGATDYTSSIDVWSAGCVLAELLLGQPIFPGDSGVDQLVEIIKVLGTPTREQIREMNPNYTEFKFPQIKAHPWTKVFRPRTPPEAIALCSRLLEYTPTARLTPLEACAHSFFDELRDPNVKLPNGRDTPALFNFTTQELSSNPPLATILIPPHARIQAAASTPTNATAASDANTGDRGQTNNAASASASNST
Chain of CDK7/cyclin H (P50613 whole entry): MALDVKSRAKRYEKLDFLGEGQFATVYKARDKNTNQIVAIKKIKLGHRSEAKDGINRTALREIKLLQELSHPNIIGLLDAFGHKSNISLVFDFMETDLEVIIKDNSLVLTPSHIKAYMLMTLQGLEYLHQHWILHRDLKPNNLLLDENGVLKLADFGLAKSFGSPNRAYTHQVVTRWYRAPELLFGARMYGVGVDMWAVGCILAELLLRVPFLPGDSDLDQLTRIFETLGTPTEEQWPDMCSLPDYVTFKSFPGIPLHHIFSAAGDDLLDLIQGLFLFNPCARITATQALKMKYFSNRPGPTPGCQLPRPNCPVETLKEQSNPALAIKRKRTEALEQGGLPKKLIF
Chain of CDK7/cyclin H (P51946 whole entry partner): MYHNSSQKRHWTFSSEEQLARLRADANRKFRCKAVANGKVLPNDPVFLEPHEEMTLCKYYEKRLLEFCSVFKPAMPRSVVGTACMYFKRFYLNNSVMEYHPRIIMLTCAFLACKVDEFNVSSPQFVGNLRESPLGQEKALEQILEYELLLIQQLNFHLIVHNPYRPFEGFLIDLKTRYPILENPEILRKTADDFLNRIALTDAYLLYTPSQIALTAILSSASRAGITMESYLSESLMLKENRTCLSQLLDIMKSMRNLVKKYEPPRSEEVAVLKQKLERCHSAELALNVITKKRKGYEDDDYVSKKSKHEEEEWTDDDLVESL
Chain of CDK9/cyclin T1 (P50750 whole entry): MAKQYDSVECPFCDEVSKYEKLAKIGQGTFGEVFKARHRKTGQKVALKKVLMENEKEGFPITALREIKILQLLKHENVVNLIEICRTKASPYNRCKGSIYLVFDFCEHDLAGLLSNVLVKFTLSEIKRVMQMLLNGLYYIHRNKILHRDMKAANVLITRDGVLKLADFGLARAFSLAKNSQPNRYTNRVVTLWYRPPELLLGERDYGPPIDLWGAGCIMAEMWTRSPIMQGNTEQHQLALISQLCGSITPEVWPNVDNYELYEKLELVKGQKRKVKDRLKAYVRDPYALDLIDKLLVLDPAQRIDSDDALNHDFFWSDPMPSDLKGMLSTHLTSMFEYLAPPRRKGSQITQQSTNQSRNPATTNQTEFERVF
Chain of CDK9/cyclin T1 (O60563 whole entry partner): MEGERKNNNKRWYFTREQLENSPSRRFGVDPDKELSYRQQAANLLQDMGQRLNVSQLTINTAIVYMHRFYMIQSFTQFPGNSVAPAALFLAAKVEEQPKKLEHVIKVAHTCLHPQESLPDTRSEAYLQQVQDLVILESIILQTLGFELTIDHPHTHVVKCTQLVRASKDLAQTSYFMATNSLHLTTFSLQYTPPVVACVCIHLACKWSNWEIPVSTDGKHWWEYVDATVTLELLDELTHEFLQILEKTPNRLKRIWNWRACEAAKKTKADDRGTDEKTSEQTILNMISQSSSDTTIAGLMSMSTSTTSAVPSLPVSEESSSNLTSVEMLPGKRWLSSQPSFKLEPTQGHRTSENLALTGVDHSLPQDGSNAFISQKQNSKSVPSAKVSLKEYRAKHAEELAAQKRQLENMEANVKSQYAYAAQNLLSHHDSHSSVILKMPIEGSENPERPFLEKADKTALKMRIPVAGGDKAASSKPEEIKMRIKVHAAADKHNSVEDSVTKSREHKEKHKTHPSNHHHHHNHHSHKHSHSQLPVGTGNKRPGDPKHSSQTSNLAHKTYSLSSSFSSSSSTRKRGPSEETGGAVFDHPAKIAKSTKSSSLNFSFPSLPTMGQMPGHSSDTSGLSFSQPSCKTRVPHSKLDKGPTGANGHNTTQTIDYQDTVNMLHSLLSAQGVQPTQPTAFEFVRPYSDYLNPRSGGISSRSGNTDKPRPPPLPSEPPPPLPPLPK

SMILES | IC50 [1] [µM] | IC50 [2] [µM] | IC50 [3] [µM] | IC50 [4] [µM] | IC50 [5] [µM] | IC50 [6] [µM] | IC50 [7] [µM] | IC50 [8] [µM] | IC50 [9] [µM] | melting point [°C]
Cc1nc(C)c(-c2ccnc(Nc3cccc(S(C)(=O)=O)c3)n2)s1 [Compound 4, [4-(2,4-Dimethyl-thiazol-5-yl)-pyrimidin-2-yl]-(3-methanesulfonyl-phenyl)-amine] | 0.501 | 1 | 0.316 | 1.26 | 1 | 0.251 | 0.398 | 0.251 | – | –
Cc1nc(C)c(-c2ccnc(Nc3cccc(CNC(=O)c4ccccc4)c3)n2)s1 [Compound 9, N-{3-[4-(2,4-Dimethyl-thiazol-5-yl)-pyrimidin-2-ylamino]-benzyl}-benzamide] | 0.631 | 1 | 0.158 | 0.251 | 5.01 | 0.501 | 2 | 0.158 | – | –
CCNc1nc(C)c(-c2ccnc(Nc3cccc(CNS(=O)(=O)C(F)(F)F)c3)n2)s1 [Compound 10, N-{3-[4-(2-Ethylamino-4-methyl-thiazol-5-yl)-pyrimidin-2-ylamino]-benzyl}-C,C,C-trifluoro-methanesulfonamide] | – | 6.31 | 1.58 | – | 6.31 | 0.316 | 6.31 | 2 | 0.158 | –
Cc1nc(C)c(-c2ccnc(Nc3cccc(CNS(=O)(=O)C(F)(F)F)c3)n2)s1 [Compound 11, N-{3-[4-(2,4-Dimethyl-thiazol-5-yl)-pyrimidin-2-ylamino]-benzyl}-C,C,C-trifluoro-methanesulfonamide] | 1.58 | 1.58 | 0.158 | 1.26 | 0.631 | 1.26 | 1.58 | 0.2 | – | –
CCNc1nc(C)c(-c2ccnc(Nc3cccc(S(C)(=O)=O)c3)n2)s1 [Compound 28, [4-(2-Ethylamino-4-methyl-thiazol-5-yl)-pyrimidin-2-yl]-(3-methanesulfonyl-phenyl)-amine] | – | 0.794 | 0.0158 | 0.251 | 0.1 | 0.00316 | 0.631 | – | 0.0794 | –
CNS(=O)(=O)c1cccc(Nc2nccc(-c3sc(C)nc3C)n2)c1 [Compound 33, 3-[4-(2,4-Dimethyl-thiazol-5-yl)-pyrimidin-2-ylamino]-N-methyl-benzenesulfonamide] | 0.501 | 0.2 | 0.0501 | 0.2 | 0.126 | 0.01 | 0.2 | 1.26 | – | –
CCNc1nc(C)c(-c2ccnc(Nc3ccc(S(=O)(=O)NCCOC)cc3)n2)s1 [Compound 39, 4-[4-(2-Ethylamino-4-methyl-thiazol-5-yl)-pyrimidin-2-ylamino]-N-(2-methoxy-ethyl)-benzenesulfonamide] | 0.0501 | 0.0126 | 0.0158 | 0.501 | 0.631 | 0.2 | 5.01 | 0.126 | – | –
CNc1nc(C)c(-c2ccnc(Nc3ccc(S(=O)(=O)NCCOC)cc3)n2)s1 [Compound 40, N-(2-Methoxy-ethyl)-4-[4-(4-methyl-2-methylamino-thiazol-5-yl)-pyrimidin-2-ylamino]-benzenesulfonamide] | 0.0794 | 0.0158 | 0.00316 | – | – | 0.158 | 0.501 | 0.00501 | – | –
COCCNS(=O)(=O)c1ccc(Nc2nccc(-c3sc(N)nc3C)n2)cc1 [Compound 41, 4-[4-(2-Amino-4-methyl-thiazol-5-yl)-pyrimidin-2-ylamino]-N-(2-methoxy-ethyl)-benzenesulfonamide] | 0.0501 | 0.0158 | 0.00794 | 0.501 | 3.16 | – | 0.794 | 0.0501 | – | –
COCCNS(=O)(=O)c1cccc(Nc2nccc(-c3sc(C)nc3C)n2)c1 [Compound 56, 3-[4-(2,4-Dimethyl-thiazol-5-yl)-pyrimidin-2-ylamino]-N-(2-methoxy-ethyl)-benzenesulfonamide] | – | 3.98 | – | – | 5.01 | 0.501 | 1.26 | 0.126 | – | 197 to 198
CNc1nc(C)c(-c2ccnc(Nc3cccc(S(=O)(=O)NC(C)=O)c3)n2)s1 [Compound 63, N-Acetyl-3-[4-(4-methyl-2-methylamino-thiazol-5-yl)-pyrimidin-2-ylamino]-benzenesulfonamide] | 6.31 | 3.16 | 0.631 | 0.501 | 2.51 | 0.398 | 1.58 | 1.58 | – | –
CC(=O)NS(=O)(=O)c1cccc(Nc2nccc(-c3sc(N)nc3C)n2)c1 [Compound 64, N-Acetyl-3-[4-(2-amino-4-methyl-thiazol-5-yl)-pyrimidin-2-ylamino]-benzenesulfonamide] | 6.31 | 2.51 | 0.398 | 0.398 | 1.58 | 0.251 | 1.58 | 0.2 | – | –

Source: patent US20090137572A1, “2-substituted-4-heteroaryl-pyrimidines useful for the treatment of proliferative disorders” (priority 2004, published 2009)
